Experiments:
Assay in all cases: relative viability (nuclei count vs DMSO), 5 days (fraction); higher = more cells survive
[1] = compound: O=S(=O)(c1ccccc1)N(CC(F)(F)F)c1ccc(C(O)(C(F)(F)F)C(F)(F)F)cc1 + CC(=O)c1c(C)c2cnc(Nc3ccc(N4CCNCC4)cn3)nc2n(C2CCCC2)c1=O [Palbociclib] (partner 0.5 µM)
In short: (§1)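 Values are medians from duplicate plates. Each reflects relative viability, defined as the nuclei count of treated wells over that of vehicle wells. Lung cancer cell lines in 1536-well plates were pin-tool dosed one day after seeding with one drug alone or with a fixed anchor-drug dose plus five library-drug doses (not always all listed) in √10 steps, then fixed, stained and imaged at 4× after 5 days.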

[2] = compound: C1=CC2=C(C=CC(=C2)C=C3C(=O)NC(=NCC4=CC=CS4)S3)N=C1 [RO-3306] + NC(=O)Nc1cc(-c2cccc(F)c2)sc1C(=O)N[C@H]1CCCNC1 [AZD7762] (partner 0.2 µM)
In short: as §1

[3] = compound: C1=CC2=C(C=CC(=C2)C=C3C(=O)NC(=NCC4=CC=CS4)S3)N=C1 [RO-3306] + Nc1nc2[nH]cc(CCc3ccc(C(=O)N[C@@H](CCC(=O)O)C(=O)O)cc3)c2c(=O)[nH]1 [Pemetrexed] (partner 0.2 µM)
In short: as §1

[4] = compound: C1=CC2=C(C=CC(=C2)C=C3C(=O)NC(=NCC4=CC=CS4)S3)N=C1 [RO-3306] + CC1(C)CCC(c2ccc(Cl)cc2)=C(CN2CCN(c3ccc(C(=O)NS(=O)(=O)c4ccc(N[C@H](CCN5CCOCC5)CSc5ccccc5)c(S(=O)(=O)C(F)(F)F)c4)cc3)CC2)C1 [Navitoclax] (partner 0.5 µM)
In short: as §1

Cell Line	relative viability ([1]; first compound 0.8 µM)	relative viability ([1]; first compound 2.53 µM)	relative viability ([1]; first compound 8 µM)	relative viability ([2]; first compound 0.01 µM)	relative viability ([2]; first compound 0.03162 µM)	relative viability ([2]; first compound 0.1 µM)	relative viability ([2]; first compound 0.3162 µM)	relative viability ([2]; first compound 1 µM)	relative viability ([3]; first compound 0.01 µM)	relative viability ([3]; first compound 0.03162 µM)	relative viability ([3]; first compound 0.1 µM)	relative viability ([3]; first compound 0.3162 µM)	relative viability ([3]; first compound 1 µM)	relative viability ([4]; first compound 0.01 µM)	relative viability ([4]; first compound 0.03162 µM)	relative viability ([4]; first compound 0.1 µM)	relative viability ([4]; first compound 0.3162 µM)	relative viability ([4]; first compound 1 µM)
HOP-62	0.408	0.3	0.355	0.695	0.469	0.466	0.567	0.451	0.371	0.438	0.318	0.307	0.416	1.14	1.01	1.07	0.937	1.33
IA-LM														0.838	0.591	0.717	0.903	1.04
LC-2-ad	0.53	0.501	0.422	0.86	0.842	0.826	0.823	0.647	0.291	0.26	0.278	0.278	0.27	0.451	0.465	0.437	0.408	0.378
LCLC-97TM1		0.206	0.236	0.258		0.197	0.31	0.26	0.175	0.169	0.144	0.178	0.185		0.292	0.354	0.399	0.317
LCLC-103H	0.503	0.523	0.488	0.732	0.695	0.795	0.819	0.725	0.474	0.461	0.448	0.457	0.464					
NCI-H358		0.129	0.116	0.486	0.493	0.49	0.52	0.578	0.192	0.154	0.177	0.189	0.174					
NCI-H520	0.231	0.254	0.236						0.811	0.67	0.714	0.646	0.727	1.27	1.13	1.13	1.01	0.942
NCI-H522	1.01	1.14	0.913	0.914	0.734	0.914	0.89	0.843	1.16	0.947	0.868	1.16	1.03					
NCI-H596				1.17	1.01	1.03	1.1	0.917	0.519	0.403	0.467	0.522	0.452	0.894	0.967	0.962	0.994	0.72
NCI-H650	0.322	0.329	0.27	0.874	0.911	0.943	1.05	0.952	0.958	0.883	0.868	0.986	0.983					
NCI-H661	0.426	0.386	0.396						0.966	0.954	0.929	0.926	0.963					
NCI-H727	0.621	0.623	0.618	0.488	0.681	0.558	0.567	0.739						0.45	0.395	0.433	0.471	0.455
NCI-H1299														1.08	1.11	1.04	1	1.03
NCI-H1563									0.847	0.788	0.818	0.852	0.692					
NCI-H1648	0.258	0.274	0.29	0.809		0.697	0.643	0.625	0.887		0.602	0.697	0.873					
NCI-H1650	0.308	0.276	0.367						0.517	0.351	0.324	0.335	0.38	1.15	1.11	1.19	1.19	0.974
NCI-H1703				0.137	0.102	0.125		0.124						1.23	0.913	1.08	0.887	1.13
NCI-H2009	0.174	0.238	0.223						1.11	1.12	1.05	0.988	1.01	1.2	1.14	1.17	1.09	1.13
NCI-H2023	0.335	0.328	0.27						0.233	0.23	0.209	0.274	0.262	1.05	0.912	0.898	0.943	1.01
NCI-H2228	0.989	0.639	0.722						0.356	0.36	0.347	0.355	0.265	1.19	0.805	0.673	1.07	0.62
NCI-H2342	0.592	0.545	0.502	0.437	0.448	0.524	0.536	0.464	0.71	0.778	0.816	0.817	0.759					
SK-LU-1	0.358	0.423	0.376						1.03	0.918	0.963	0.949	0.897	1.08	0.837	0.774	0.926	0.832
SK-MES-1	0.351	0.354	0.277						1.14	1	0.981	0.968	0.938	1.36	1.25	1.22	1.36	1.2
SW 900	0.409	0.421	0.5	0.652	0.511	0.653	0.587	0.626	0.487	0.383	0.464	0.488	0.411					
SW 1573	0.449	0.323	0.356						0.893	0.744	0.697	0.9	0.67	0.838		0.892	0.886	0.966
